Data reported in patent US20170143701A1, “CARBOHYDRATE METABOLISM-AMELIORATING AGENT” (SUNTORY HOLDINGS LIMITED, priority 2014, published 2017).

Assays:
C57/BL6J mice = assay: In vivo plasma GLP-1 level-increasing action: plasma active GLP-1 level (ELISA) after oral administration; details: 10 mg/kg oral; for Significant difference (p < 0.05) vs control group, plasma active GLP-1 level: 30 minutes, Student's t-test; for Plasma active GLP-1 level (relative value to control group as 100), average value: blood 30 minutes after, 0.5% CMC-Na group = 100
Outline: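 Male C57BL/6J mice, habituated 1 week, deprived of food 5.5 h and water 2 h, then dosed orally with compound at 10 mg/kg in 0.5% CMC-Na. Vena cava blood taken 30 min later under anaesthesia, with heparin and sitagliptin added; plasma active GLP-1 by ELISA, relative to vehicle group set at 100.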

NCI-H716 cells = assay: In vitro GLP-1 secretion-accelerating action: amount of active GLP-1 secreted (ELISA); assay type: cell-based; details: 1 hour; for Significant difference (p < 0.05) vs control group, amount of active GLP-1 secreted: 10 mM, Student's t-test; for Amount of active GLP-1 secreted (relative value to control group as 100), average value: cyclic dipeptide 10 mM with 10 μM Sitagliptin phosphate, group with no cyclic dipeptide = 100
Outline: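 NCI-H716 cells were cultured 48 h, then exposed 1 hour to cyclic dipeptide at 10 mM final with 10 μM sitagliptin in PBS(+). Active GLP-1 in the supernatant was measured by ELISA and expressed relative to the no-dipeptide group (=100).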

Row | SMILES | Significant difference (p < 0.05) vs control group, plasma active GLP-1 level (C57/BL6J mice; Table 7, Experiment 2) | Plasma active GLP-1 level (relative value to control group as 100), average value (C57/BL6J mice; Table 7, Experiment 2) | Significant difference (p < 0.05) vs control group, amount of active GLP-1 secreted (NCI-H716 cells; Table 4, Experiment 4) | Amount of active GLP-1 secreted (relative value to control group as 100), average value (NCI-H716 cells; Table 4, Experiment 4) | Significant difference (p < 0.05) vs control group, plasma active GLP-1 level (C57/BL6J mice; Table 6, Experiment 1) | Plasma active GLP-1 level (relative value to control group as 100), average value (C57/BL6J mice; Table 6, Experiment 1) | Significant difference (p < 0.05) vs control group, amount of active GLP-1 secreted (NCI-H716 cells; Table 1, Experiment 1) | Amount of active GLP-1 secreted (relative value to control group as 100), average value (NCI-H716 cells; Table 1, Experiment 1) | Significant difference (p < 0.05) vs control group, amount of active GLP-1 secreted (NCI-H716 cells; Table 2, Experiment 2) | Amount of active GLP-1 secreted (relative value to control group as 100), average value (NCI-H716 cells; Table 2, Experiment 2)
1 | CSCC[C@@H]1NC(=O)[C@H](CCCNC(=N)N)NC1=O [compound 199, cyclo-methionyl-arginine] | Yes | 217 | Yes | 652 |  |  |  |  |  | 
2 | C[C@@H](O)[C@@H]1NC(=O)[C@@H]2CCCN2C1=O [compound 31, Cyclo(Pro-Thr)] |  |  |  |  | No | 129 | Yes | 204 |  | 
3 | CC(C)C[C@@H]1NC(=O)[C@H](CCCN=C(N)N)NC1=O [compound 43, cyclo-arginyl-leucine] |  |  |  |  | Yes | 138 | Yes | 226 |  | 
4 | O=C(O)C[C@@H]1NC(=O)[C@@H]2CCCN2C1=O [compound 48, Cyclo(Asp-Pro)] |  |  |  |  | No | 110 |  |  | Yes | 199
5 | C[C@@H]1NC(=O)[C@@H]2CCCN2C1=O [compound 187, cyclo-L-alanyl-proline] | Yes | 217 | Yes | 1186 |  |  |  |  |  | 
6 | CSCC[C@@H]1NC(=O)[C@@H]2CCCN2C1=O [compound 18, cyclo-methionyl-proline] |  |  |  |  | Yes | 138 | Yes | 338 |  | 
7 | O=C1NC(Cc2c[nH]c3ccccc23)C(=O)NC1Cc1cnc[nH]1 (centres unmarked) [compound 60, Cyclo(Trp-His)] |  |  |  |  | No | 129 |  |  | Yes | 260
8 | NC(N)=NCCCC1NC(=O)C(CC(=O)O)NC1=O (centres unmarked) [compound 207, cyclo-arginyl-aspartic acid] | Yes | 266 | Yes | 1255 |  |  |  |  |  | 
